Laboratory results published in PMC10547880, “Synthesis and biological evaluation of novel 1,2,3-triazole hybrids of cabotegravir: identification of potent antitumor activity against lung cancer” (Frontiers in Pharmacology, 2023).

How the values were obtained:
Type in all cases: cell-based, Human
[1] = system: H460 cells; assay: Live/dead cell staining (Calcein-AM/PI), H460; details: H460, 5, 10, 20 μM, 24 h
Protocol: Cells with a density of 5 × 10^3 cells per well were seeded in a 96-well plate. After overnight incubation, cells were treated with different concentrations (0, 5 μM, 10 μM, 20 μM) of compounds for 24 h. The LIVE/DEAD Assay Kit was used to dye cells, and cells were observed and photographed under a fluorescent microscope. Live and Dead cell numbers were counted and the ratio of dead to living cells were calculated. Values were expressed as Mean ± SEM, p < 0.05 was considered statistically significant. Data were performed using Graph Prim 7.0. To assess the anti-proliferative effects of compound 5i, live/dead cell staining was performed using Calcein Acetoxymethyl Ester (Calcein-AM) and Propidium Iodide (PI) dyes ([Xie et al., 2023]). Calcein-AM highlights live cells through green fluorescence emission, while PI identifies dead cells with damaged membrane integrity, producing red fluorescence. H460 and H1299 cells were treated with different concentrations (0, 5, 10 and 20 μM) of compound 5i for 24 h. After 24 h treatment, cells were stained with Calcein-AM and PI, diluted in cultured medium, and incubated for an hour in dark. Then the fluorescence was detected and photographed using a fluorescent microscope. […] In addition, we also performed plate clone formation assay ([Xu et al., 2018]) to further investigate the anti-proliferation ability of compound 5i. […]

[2] = system: H1299 cells; assay: Plate clone formation assay, H1299; details: H1299, 2-32 μM
Protocol: Cells with the density of 500 cells per well were seeded in a 6-well plate. Different concentrations (0, 2 μM, 4 μM, 8 μM, 16 μM and 32 μM) of compounds were added to cells and maintained for a 72- hour duration. And cells were cultured until the monoclonal appeared. Afterward, cells were fixed with 4% paraformaldehyde and stained by Giemsa dye. The plate clone numbers were photographed and counted using a microscope. Values were expressed as Mean ± SEM, p < 0.05 was considered statistically significant. Data were performed using Graph Prim 7.0.
To assess the anti-proliferative effects of compound 5i, live/dead cell staining was performed using Calcein Acetoxymethyl Ester (Calcein-AM) and Propidium Iodide (PI) dyes ([Xie et al., 2023]). Calcein-AM highlights live cells through green fluorescence emission, while PI identifies dead cells with damaged membrane integrity, producing red fluorescence. H460 and H1299 cells were treated with different concentrations (0, 5, 10 and 20 μM) of compound 5i for 24 h. After 24 h treatment, cells were stained with Calcein-AM and PI, diluted in cultured medium, and incubated for an hour in dark. Then the fluorescence was detected and photographed using a fluorescent microscope. […] In addition, we also performed plate clone formation assay ([Xu et al., 2018]) to further investigate the anti-proliferation ability of compound 5i. […]

[3] = system: H460 cells; assay: Apoptosis assay, Annexin V-FITC/PI flow cytometry, H460; details: H460, 2, 4 and 8 μM, 72 h
Protocol: (§1) Cells with a density of 3 × 10^5 cells per well were seeded in 6-well plates. After overnight adhesion, cells were treated with different concentrations of compounds for 72 h. Cells were harvested and stained with Annexin V-FITC and propidium iodide. Apoptotic ratio was quantified using the flow cytometry (BD Biosciences) and analyzed using the FlowJo software v10. Values were expressed as Mean ± SD, p < 0.05 was considered statistically significant. Data were performed using Graph Prim 7.0.
(§2) Apoptosis is a programmed-controlled process of cell self-destruction, and increased cell apoptosis can lead to cell death ([Wang et al., 2023]). To explore the preliminary molecular mechanisms of the synthesized compounds action, the apoptotic activity of compound 5i was evaluated by comparing the percentage of apoptotic cells with untreated cells using flow cytometry after staining with Annexin V-FITC and PI ([Chen et al., 2022a]). This assay facilitates the detection of necrotic cells (Q1, AV-/PI+), late apoptotic cells (Q2, AV+/PI+), early apoptotic cells (Q3, AV+/PI-), and live cells (Q4, AV-/PI-). H460 and H1299 cells were treated with different doses of compound 5i for 72h, and cells were collected, stained, and analyzed. The proportion of early and late apoptotic cells was added and their ratio relative to the total cells was calculated.

[4] = system: H1299 cells; assay: Apoptosis assay, Annexin V-FITC/PI flow cytometry, H1299; details: H1299, 72 h
Protocol: as §1, §2

[5] = system: H460 cells; assay: Cellular ROS measurement (DCFH-DA), H460; details: H460, 5, 10 or 20 μM, 24 h
Protocol: Cells with a density of 5 × 10^3 cells/well were cultured in a 96-well plate. The cells were treated with different concentrations (0, 5, 10, 20 μM) of compounds for 24 h. Then the medium was replaced with 10 μM DCFH-DA dissolved in culture medium and incubated for 30min at 37°C in dark. The fluorescent cells were observed and photographed using a fluorescent microscope.
Reactive oxygen species (ROS) levels were determined quantitatively using the probe 2′-7′-dichlorodihydrofluorescin diacetate (H2DCFDA) ([Kim and Xue, 2020]). Under normal condition, ROS participated in mitochondrial electron transport, signal transduction, gene expression, and enzyme reactions. But excess or deficiency of ROS levels can result in the development of diseases including cancers, diabetes, atherosclerosis, neurodegenerative diseases and others ([Wang et al., 2023]). ROS induction is associated with mitochondrial membrane damage, cell apoptosis, and ultimately cell death ([Dixon and Stockwell, 2014]). To evaluate the effect of compound 5i on ROS generation, H460 cells were treated with 5 μM, 10 μM or 20 μM of compound 5i for 24 h. […] DCFH-DA has no fluorescence and it can pass through cell membrane freely. […] This phenomenon can be attributed to the reduction in the number of live cells; however, the observed fluorescence appeared more intense (Figure 5).

COc1c2n(cc(C(=O)Nc3cccc(-c4cn(-c5ccccc5OC(F)(F)F)nn4)c3)c1=O)CC1OCC(C)N1C2=O (centres unmarked) [Compound 5i]
live and dead cell numbers [1]: significantly decreased the number of live cells and increased the number of dead cells | number of cell clones [2]: reduction in the number of cell clones | apoptotic cells (early + late) [3]: significant increase in apoptotic cells | apoptotic cells (early + late) [4]: no significant change or even a decrease | ROS generation [5]: significant augmentation in ROS generation
